Laboratory results published in patent US20060148763A1, “Compounds and methods for regulating triglyceride levels” (priority 2005, published 2006).

Tested on: serum triglyceride levels
Assay: Rabbit hypercholesteremic model (2% cholesterol diet, 7 weeks): serum triglycerides
Type: in vivo, Male New Zealand white rabbits
Conditions: hypercholesterol diet, n = 5, P5P 10 mg/kg/day, simvastatin 5 mg/kg/day oral
Procedure: The anti-atherogenic effects of P5P alone and in combination with simvastatin in a rabbit hypercholesteremic model were determined. The study compared the effects of P5P and simvastatin alone and in combination on atherosclerotic lesion formation, lipid profile (total cholesterol, LDL, HDL, triglycerides and oxidized LDL), homocysteine levels and various markers of inflammation (CRP, IL-1β, IL-6, IFN-γ and TNF-α).
Animals—Male New Zealand white rabbits 2.0-3.0 kg.
Animal Feed—The normocholesterol diet is Co-op Complete Rabbit Feed manufactured by Federated Co-operatives Limited (Saskatchewan). The 2% cholesterol diet is Test Diet 0009459 MRab/2% Chol 3/16 manufactured by Purina Mills (USA).
The rabbits were fed the normocholesterol and 2% cholesterol diet ad libitum. All animals received a timothy cube after blood sampling. […]
Group 3: Hypercholesterol diet+P5P 10 mg/kg/day
Group 4: Hypercholesterol diet+simvastatin 5 mg/kg/day
Group 5: Hypercholesterol diet+P5P 10 mg/kg/day+simvastatin 5 mg/kg/day
The rabbits were fed a normocholesterol or hypercholesterol diet for a total of 7 weeks. The normocholesterol rabbits were treated once per day with 1 ml of ethanol and 5 ml of RO water via a nasogastric tube. The hypercholesterol animals were treated once per day with either P5P (10 mg/kg), simvastatin (5 mg/kg) or a combination of P5P and simvastatin (P5P 10 mg/kg; simvastatin 5 mg/kg) via a nasogastric tube. The P5P was dissolved in 5 ml of 0.05 N NaOH so that the pH of the solution is approximately 7. The simvastatin was dissolved in 1 ml of anhydrous ethanol.
Five ml of blood was collected from the marginal ear vein of the rabbits at 0, 2, 4 and 6 weeks. Prior to blood collection the animals were sedated with 1 mg/kg of acepromazine. Following collection, the serum was separated. The serum is aliquoted (500 μl) and frozen at −80° C. until used for the assaying various lipids (total cholesterol, LDL, HDL, triglycerides, oxidized LDL) and cytokines (CRP, IL-1β, IL-6, IFN-γ and TNF-α).
At 7 weeks, the animals were anesthetized and 10 ml of blood was collected. Then the animals were euthanized, and the heart and thoracic aorta removed. The hearts and aortas were frozen in liquid nitrogen or an ethanol dry ice bath and stored at −80° C. until analyzed.
Test Articles—P5P (pyridoxal 5′-phosphate monohydrate) was purchased from Sigma (P82870). Simvastatin is obtained from ACIC Fine Chemicals Inc. Two test compound vials were provided for each animal for each day. The first vial (small) was diluted in 1 ml of anhydrous ethanol. The second vial was diluted in either 5 ml of RO water or 5 ml of 0.05 N NaOH. The diluent for each vial was clearly marked on the vial. The test solutions were prepared fresh each day just before they were administered to the animals. The stock P5P was stored in a refrigerator at 4° C. under low light conditions. The simvastatin was stored following the manufacture recommendations. The individual test vials were stored in a refrigerator at 4° C. under low light conditions.
Test Article(s) Dose, Route of Administration and Duration—The rabbits were treated orally with the drugs, once per day for a total of 7 weeks. The contents of vial one (small; 1 ml) were given to the animals first, followed by the contents of vial 2 (large; 5 ml). The test compound treatments were followed by a 5 ml RO water chaser.

## CCC(C)(C)C(=O)O[C@H]1C[C@@H](C)C=C2C=C[C@H](C)[C@H](CC[C@@H]3C[C@@H](O)CC(=O)O3)[C@H]21 [Simvastatin, simvastatin, reference compound]
  Triglycerides, Week 2: 0.986 mmol/L
  Triglycerides, Week 4: 1.588 mmol/L
  Triglycerides, Week 6: 2.158 mmol/L
End of study
  Triglycerides, Week 7: 1.766 mmol/L
Start of study
  Triglycerides, Week 0: 0.956 mmol/L
